Tests used:
Z-138 cells = experiment: Inhibitory activity on tumor cell proliferation (Cell-Titer Glo, 8 days); type: cell-based; conditions: Homo sapiens, 192 h, read-out: Inhibition of cell proliferation Z-138 IC50
Experimental: Materials and cells: Z-138 cells were purchased from ATCC (USA); IMDM medium and penicillin-streptomycin were purchased from Sigma PLC. (USA); horse serum was purchased from Hyclone (USA); 96-well plate was purchased from Corning (USA); and Cell-Titer Glo reagent was purchased from Promega (USA).
(§1) Cell culture: Z-138 cells were cultured in an IMDM culture solution containing 10% Horse serum+1% penicillin−streptomycin at 37° C., 5% CO2. Cells in logarithmic growth phase were suitable for the experiment.
Detection of cell proliferation activity: The inhibitory activities of the compounds on the proliferation of Z-138 cells were detected by using the Cell-Titer Glo reagent. The concentrations of the cells were adjusted, and 180 μL was inoculated in each well of the 96-well plate (500/well) and equilibrated for 10-15 minutes at 37° C., 5% CO2. 20 μL of a culture solution containing the compounds was added into each well with the final concentration reaching 0-300 nM (initial concentration: 300 nM, 3-fold dilution, for 10 points), and the DMSO content was 0.1%. The cell plate was placed at 37° C., 5% CO2 and incubated for 8 days. Culture solution was replaced at day 4: 100 μL of the supernatant was slowly aspirated and 100 μL of a fresh culture solution containing the compounds was provided as a supplement while the concentrations of the compounds were held constant. The cell viability was detected by using the Cell-Titer Glo reagent.

SDMA in Z-138 cells = experiment: Inhibitory activity on SDMA in cells (immunofluorescent assay); type: cell-based; conditions: Homo sapiens, 48 h, 2 days, read-out: Inhibition of SDMA in cells IC50
Excerpt: Materials and cells: Z-138 cells were purchased from ATCC (USA); IMDM medium and penicillin-streptomycin were purchased from Sigma PLC. (USA); horse serum was purchased from Hyclone (USA); Hoechst antibodies were purchased from Invitrogen (USA); Alexa Fluor 488 goat anti-rabbit IgG antibodies were purchased from Invitrogen (USA); Anti-dimethyl-Arginine symmetric (SYM11) antibodies were purchased from Merck & Co., Inc. (USA); DPBS was purchased from Gibco (USA); Nonfat Dry milk was purchased from Cell Signaling Technology (USA); paraformaldehyde was purchased from Beijing Solarbio Science & Technology Co., Ltd.; 384-well plate and Echo 550 Liquid Handler were purchased from Labcyte Inc. (USA); and an ImageXpress Nano was purchased from Molecular Devices (USA).
as §1
Immunofluorescent assay: The effects of the compounds on SDMA in Z-138 cells were detected by using immunofluorescence. The cells were adjusted to the concentration of 1*10^5/mL and 40 μL was inoculated in each well of the 384-well plate (4000/well) and equilibrated for 10-15 minutes at 37° C., 5% CO2. The compound was added into a 384-well plate by using the Echo 550 Liquid Handler with the final concentration of 0-300 nM (initial concentration: 300 nM, 3-fold dilution, for 10 points), and the DMSO content was 0.1%. The cell plate was placed at 37° C., 5% CO2 and incubated for 2 days. 40 μL of 8% paraformaldehyde was added into each well and incubated at room temperature for 30 minutes. The supernatant was discarded, the plate was washed with DPBS, and 40 μL of 0.5% PBST (phosphate buffer with Tween) was added into each well and incubated at room temperature for 60 minutes. The supernatant was discarded, the plate was washed with 0.05% PBST, and 40 μL of a blocking solution (1% Nonfat milk in 0.05% PBST) was added into each well and incubated at room temperature for 60 minutes. The supernatant was discarded, and 20 μL of the primary antibody (SYM11, diluted with a blocking solution at 1:500) was added into each well and maintained at 4° C. overnight. The supernatant was discarded, the plate was washed with 0.05% PBST, 20 μL of the secondary antibody (Alexa Fluor 488 goat anti-rabbit and Hoechst, diluted with a blocking solution at 1:1000 and 1:5000, respectively) was added to each well and incubated at room temperature for 60 minutes. The supernatant was discarded, the plate was washed with 0.05% PBST, and the fluorescent intensity was detected with ImageXpress Nano.

[1] = Pharmacokinetic experiment in mice; type: in vivo, CB17-SCID mice
Excerpt: Experimental materials: GB17-SCID mice were purchased from Beijing Vital River Laboratory Animal Technology Co., Ltd.; DMSO, HP-β-CD (Hydroxypropyl-β-cyclodextrin), MC (methyl cellulose) and acetonitrile were purchased from Merck & Co., Inc. (USA), and K2EDTA anticoagulation tubes were purchased from Jiangsu Xinkang Medical Instrument Co., Ltd.
Experiment method: Six female CB17-SCID mice (20-30 g, 4-6 weeks) were randomized into 2 groups, 3 mice/group. Group 1 was given compound 002 via tail vein injection at a dose of 2 mg/kg, and the vehicle was 5% of DMSO+95% of 10% HP-β-CD aqueous solution; and group 2 was given compound 002 orally at a dose of 10 mg/kg, and the vehicle was 0.5% MC aqueous solution. Prior to the experiment, the animals were given food and water as usual. At pre-dose and 0.083 (only for the vein injection group), 0.25, 0.5, 1, 2, 4, 6, 8 and 24 h post-dose, blood was sampled from the mice in each group from the vein. The whole blood sample collected was placed in a K2EDTA anticoagulation tube and centrifuged for 5 min (4000 rpm, 4° C.) and then the plasma was taken for detection.
10 μL of the mouse plasma sample was taken and 150 μL of acetonitrile solvent (wherein internal standard compound was contained) was added to precipitate proteins. After the mixture was vortexed for 0.5 min, centrifugation (4700 rpm, 4° C.) was performed for 15 min. The supernatant was diluted 2-fold with water containing 0.05% (v/v) formic acid and 3 μL was injected into the LC-MS/MS system (AB Sciex Triple Quad 6500+) for the quantitative detection. The concentrations of the samples were determined with the present of plasma standard curve (linear range: 0.5-1000 ng/mL) of CB17-SCID mice and quality control samples. For the preparation of 10-fold diluted samples, 2 μL of mouse plasma sample was taken and 18 μL of blank plasma was added. After the mixture was vortexed for 0.5 min, 300 μL of acetonitrile solvent (wherein internal standard compound was contained) was added to precipitate proteins. The other processing steps were identical to those for the samples not diluted.

[2] = Hepatocellular metabolic stability test, human hepatocytes
Excerpt: Experimental materials: Human hepatocytes were purchased from Biopredic; mouse hepatocytes were purchased from BioIVT; acetonitrile and methanol were purchased from Merck & Co., Inc.; AOPI dyes were purchased from Nexcelom; dexamethasone was purchased from NIFDC; DMSO was purchased from Beijing Solarbio Science & Technology Co., Ltd.; DPBS (10×), GlutaMAX™-1 (100×) and recombinant human insulin were purchased form Gibco by Life Technologies; fetal bovine serum was purchased from Corning; formic acid was purchased from DIKMAPURE; Isotonic Percoll was purchased from GE Healthcare; alprazolam was purchased from Supelco; caffeine was purchased from ChromaDex.inc; and HEPES, tolbutamide and Williams' Medium E were purchased from Sigma.
The powder of a test substance was formulated with DMSO into a stock solution with a high concentration, which was diluted to a working solution of 100 μM with acetonitrile prior to use. The final concentration of the test substance was 1 μM.
49.5 mL of Williams'E Medium and 0.5 mL of GlutaMAX were mixed as an incubation media. Hepatocyte thawing media and incubation media were placed in a 37° C. water-bath and pre-heated for at least 15 minutes prior to use. A tube of hepatocytes stored at an ultra-low temperature was taken and the hepatocytes were ensured to be at a frozen state at a low temperature prior to thawing. The hepatocytes were rapidly placed in a 37° C. water-bath and gently shaken until all the ice crystals were dispersed, and then after 70% ethanol was sprayed, the hepatocytes were transferred to a biosafety cabinet. The content of the tube was poured into a centrifugal tube containing 50 mL of thawing media and centrifuged at 100 g for 10 minutes. After centrifugation, the thawing media was aspirated, and a sufficient amount of incubation media was added to obtain a cell suspension with a cell density of about 1.5×10^6 cells/mL. The hepatocytes were counted, and the viable cell density was determined using Cellometer Vision, and the survival rate of the hepatocytes must be higher than 75%. The hepatocyte suspension was diluted by using the incubation media to a viable cell density of 0.5×10^6 viable cells/mL.
247.5 μL of viable cell (human hepatocytes or mouse hepatocytes) suspension or media were transferred into a 96-well deep-well plate, and the deep-well plate was placed in a vortex incubator and pre-heated for 10 minutes. Incubation of all the samples was performed in parallel duplicate. Test substance (2.5 μL, 100 μM) was added into each well to start the reaction and the deep-well plate was placed in the vortex incubator again. The samples were incubated, and 25 μL of the suspension was taken at 0, 15, 30, 60, 90 and 120 minutes, respectively. 125 μL of acetonitrile containing internal standard (100 nM alprazolam, 200 nM caffeine, and 100 nM tolbutamide) was added to terminate the reaction. The mixture was vortexed for 10 minutes and centrifuged at 3220 g, 4° C. for 30 minutes. After centrifugation, 100 μL of the supernatant was transferred into the loading plate and 150 μL of pure water was added and mixed uniformly for LC-MS/MS analysis.
All the data calculation was performed by the Microsoft Excel software. The peak area was detected by extracting the ion chromatogram. The in vitro half-life (t1/2) of the parent drug was detected by performing linear fitting of the natural logarithm of elimination percent of the parent drug and time.
The in vitro half-life (t1/2) was calculated by means of the slope:

[3] = female, CB17-SCID, mouse, plasma, 10 mg/kg, Mice PO (10 mpk)

Compound: CCN1CCN(C[C@@H](O)[C@@H]2Cc3ccccc3CN2)C(=O)c2ccc(C(=O)N3CCC4(CC3)CC(OC)C4)cc21.Cl [Compound 002, 1-ethyl-4-((R)-2-hydroxy-2-((S)-1,2,3,4-tetrahydroisoquinolin-3-yl)ethyl)-8-(2-methoxy-7-azaspiro[3.5]nonane-7-carbonyl)-1,2,3,4-tetrahydro-5H-benzo[e][1,4]diazepin-5-one hydrochloride]
- IC50 (Z-138 cells): 2.19 nM
- IC50 (SDMA in Z-138 cells): 1.4 nM
- Cl_obs ([1]; Mice IV (2 mpk)): 61.1 ± 6.2 mL/min/kg
- F ([1]; Mice PO (10 mpk)): 96.5 ± 20.5%
- half-life ([1]; female, CB17-SCID, mouse, plasma, 2 mg/kg, Mice IV (2 mpk)): 3.56 ± 0.55 h
- Vd ([1]; female, CB17-SCID, mouse, plasma, 2 mg/kg, Mice IV (2 mpk), read-out: Vss—obs): 8.2 ± 0.6 L/kg
- AUC(0-t) [1, 3]: 2650 ± 563 ng·h/mL
- Cmax [1, 3]: 827 ± 79 ng/mL
- Tmax [1, 3]: 0.33 ± 0.14 h
- half-life [1, 3]: 2.68 ± 0.2 h
- half-life at 1 μM [2]: 4.21 h
